Measurements reported in BindingDB's records for patent US11034694 (Nimbus Saturn, 2021).

target: Mitogen-activated protein kinase kinase kinase kinase 1 (Homo sapiens, UniProt Q92918); assay: Biochemical Enzyme Assay
Protocol: HPK1 biochemical enzyme assay: HPK1 enzyme inhibition was measured using a microfluidic mobility shift assay. […] Test compounds were titrated in ten point curves (top final assay concentration 3 μM), and preincubated with enzyme/substrate mix for 30 min prior to initiation of the reaction by addition of ATP (1 mM final concentration) and substrate (1 μM final concentration; Carna Biosciences) diluted in assay buffer supplemented by MgCl2 (final assay concentration of 5 mM). Following 60 min incubation at RT, the reaction was terminated by addition of 60 μl/well termination buffer (Carna Biosciences) and signal determination using a Caliper EZ Reader (Perkin Elmer, UK).

Chain of Mitogen-activated protein kinase kinase kinase kinase 1 (Q92918 whole entry): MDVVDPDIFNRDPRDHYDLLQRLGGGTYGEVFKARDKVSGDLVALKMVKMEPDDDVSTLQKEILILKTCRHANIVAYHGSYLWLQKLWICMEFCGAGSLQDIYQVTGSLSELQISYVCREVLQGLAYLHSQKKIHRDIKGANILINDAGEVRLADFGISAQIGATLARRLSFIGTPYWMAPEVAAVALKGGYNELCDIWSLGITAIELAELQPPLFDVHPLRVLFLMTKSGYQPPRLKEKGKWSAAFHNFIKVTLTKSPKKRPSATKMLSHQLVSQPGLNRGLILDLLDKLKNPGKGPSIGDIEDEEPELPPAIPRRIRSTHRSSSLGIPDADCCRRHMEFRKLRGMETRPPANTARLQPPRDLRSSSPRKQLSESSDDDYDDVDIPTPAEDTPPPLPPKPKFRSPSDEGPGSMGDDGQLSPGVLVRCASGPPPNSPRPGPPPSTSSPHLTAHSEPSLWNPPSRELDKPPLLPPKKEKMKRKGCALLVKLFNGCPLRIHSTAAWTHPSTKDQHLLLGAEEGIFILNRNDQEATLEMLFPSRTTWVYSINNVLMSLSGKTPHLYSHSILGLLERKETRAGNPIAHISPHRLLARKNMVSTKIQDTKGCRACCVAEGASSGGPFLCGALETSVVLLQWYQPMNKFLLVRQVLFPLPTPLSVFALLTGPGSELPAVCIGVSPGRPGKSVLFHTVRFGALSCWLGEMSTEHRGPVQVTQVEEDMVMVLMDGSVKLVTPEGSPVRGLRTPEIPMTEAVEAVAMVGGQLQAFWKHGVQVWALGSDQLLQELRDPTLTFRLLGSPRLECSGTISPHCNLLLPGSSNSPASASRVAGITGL

Structure (SMILES) | IC50
Cn1ccc2c(-c3ncc(Nc4ccc(N5C[C@H]6COC[C@@H]5C6)cn4)c4c3CNC4=O)ccnc21 [US11034694, Compound I-309] | < 100 nM
Cc1ccn2c(-c3ccc(Nc4ccc(N5CCO[C@@H](CP)C5)cn4)c4c3CNC4=O)cnc2c1F [US11034694, Compound I-460] | < 100 nM
CNC1CN(c2cccc(Cc3cnc(-c4ccnc5c4ccn5C)c4c3C(=O)NC4)n2)C1 [US11034694, Compound I-449] | < 100 nM
